Measured values taken from PMC8795149, “Characterization of a novel non-steroidal glucocorticoid receptor agonist optimized for topical treatment” (Scientific Reports, 2022).

Experiments:
Type in all cases: cell-based
[1] = system: LPS-induced TNF-alpha release in PBMCs; assay: TNF-alpha inhibition assay, mouse PBMCs; details: for EC50: geometric mean
Procedure: PMBCs were isolated from human buffy coats or animal whole blood (EDTA-treated). Buffy coats from anonymized healthy adult blood donors were obtained from the Blood Bank of the National University Hospital Copenhagen in accordance with national legislation. Whole blood from mice (obtained from Charles River) was sampled at the animal facility at LEO Pharma and whole blood from pigs was sourced from ScanTox. Test compounds and PBMCs were incubated with 1 µg/ml LPS (Sigma) overnight at 37 °C in HEPES and Glutamax-containing RPMI medium supplemented with either 0.5% human serum albumin (human PBMCs) or 10% fetal bovine serum (mouse and pig PBMCs) and penicillin/streptomycin. TNF-alpha was measured using AlphaLISA (Perkin Elmer).
(§1) IC50 of test compounds was determined by 10-point titrations in duplicates. IC50 values and other parameters were calculated by sigmoidal curve fitting in Assay Explorer.

GILZ mRNA = assay: Human skin explant, GILZ gene expression; details: human skin explants, topical, 24 h; for GILZ Relative ED50: weighted geometric mean ± SD
Procedure: NativeSkin models (NS002) were purchased from Genoskin, France. Human skin samples from abdominal reduction surgery were obtained by Genoskin from donors upon written informed consent. Full ethical approval for the study protocol was obtained from the French ethical research committee (Comité de Protection des Personnes), and authorization was given by the French Ministry of Research. The study was conducted according to the Declaration of Helsinki. 8 mm punch biopsies were excised and embedded in a fibrin-based matrix in transwells and a silicone ring was firmly attached to the surface covering the outer edge of the skin biopsy to prevent lateral diffusion of topically applied formulations. Skin models were cultured in a defined hydrocortisone- and serum-free medium provided by Genoskin.
LEO 134310 and reference glucocorticoids were dissolved in propylene carbonate and tested at 4 concentrations in five- or tenfold titrations. Compounds were applied in duplicates or triplicates on the skin surface (0.5 cm^2) in a volume of 2 µL and incubated for 24 h. Vehicle and untreated samples were included for basal level of expression.
RNA was extracted and qPCR was performed using TaqMan gene expression assays (FKBP5-Hs01561006_m1, TSC22D3 (GILZ)-Hs00608272_m1, TXNIP-Hs01006900_g1, ACTB-Hs99999903_m1, PPIA-Hs99999904_m1, GAPDH-Hs99999905_m1). Gene expression of FKBP5,TSC22D3 (GILZ), and TXNIP was normalized to the geometric mean of the reference genes ACTB, PPIA and GAPDH.
Doses were expressed as compound (API) concentrations (µg/mL) in the applied formulations. Relative upregulation of FKBP5 was estimated as − fold to vehicle treated control. Effective doses (Emax and ED50) were determined from a sigmoid Emax model in Phoenix64 version 8.0, Pharsight, Certara. Mean values and standard deviation of Emax and ED50 were calculated by weighing individual experiments based on the intra- and inter-experiment variability.

GR [2] = biological target: T1, GR (Homo sapiens, UniProt P04150); assay: Reversal of GR agonist-mediated suppression of cytokine release from LPS-stimulated PBMC by RU486; design: endogenous in cells; details: 100 nM agonist
T1 sequence (P04150 1-777): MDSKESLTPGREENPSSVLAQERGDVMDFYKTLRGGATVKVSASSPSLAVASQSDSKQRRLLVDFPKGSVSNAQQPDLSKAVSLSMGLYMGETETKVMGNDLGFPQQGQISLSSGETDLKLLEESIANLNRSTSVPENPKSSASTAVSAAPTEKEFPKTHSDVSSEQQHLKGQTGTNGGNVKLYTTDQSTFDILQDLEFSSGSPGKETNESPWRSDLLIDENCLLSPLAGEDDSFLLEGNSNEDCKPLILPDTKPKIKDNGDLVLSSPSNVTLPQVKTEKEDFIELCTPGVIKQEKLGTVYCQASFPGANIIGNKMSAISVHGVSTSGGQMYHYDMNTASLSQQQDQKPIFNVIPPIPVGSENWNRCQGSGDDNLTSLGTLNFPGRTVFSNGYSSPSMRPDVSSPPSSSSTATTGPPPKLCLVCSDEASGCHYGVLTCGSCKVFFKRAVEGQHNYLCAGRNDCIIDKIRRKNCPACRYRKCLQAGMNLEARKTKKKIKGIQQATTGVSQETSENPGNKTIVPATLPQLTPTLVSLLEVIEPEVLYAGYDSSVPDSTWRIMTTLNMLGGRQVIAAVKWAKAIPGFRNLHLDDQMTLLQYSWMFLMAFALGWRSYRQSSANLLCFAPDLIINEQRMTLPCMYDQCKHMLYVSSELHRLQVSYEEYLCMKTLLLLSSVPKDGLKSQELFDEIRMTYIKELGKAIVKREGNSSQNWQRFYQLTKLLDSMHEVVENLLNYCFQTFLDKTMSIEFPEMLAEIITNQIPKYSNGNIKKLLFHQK
Procedure: PMBCs were isolated from human buffy coats obtained in accordance with national legislation and following in-house protocol at Charles River Laboratories (Leiden, Netherlands). Test compounds and PBMCs were incubated with 10 ng/ml LPS (Sigma) overnight at 37°C in HEPES and Glutamax-containing RPMI medium supplemented with 0.5% human serum albumin (human PBMCs) and penicillin/streptomycin. TNF-alpha, IL-1-beta, and IL-6 were measured by MSD multiplex assay (Meso Scale Discovery).Compound concentration in dermis (Figure S4)

GR [3] = biological target: T1, GR; assay: Transactivation assay, MMTV promoter luciferase in HeLa cells; design: endogenous in cells; host or cells: HeLa (ATCC) stably expressing MMP1- or MMTV-promoter luciferase; details: for EC50: 20 h, geometric mean
Procedure: A HeLa cell line stably expressing luciferase under the control of the mouse mammary tumour virus (MMTV) promoter was generated. When the GR is activated by addition of a GR agonist, it forms a homodimer and binds to the MMTV promoter, t inducing transcription of the luciferase reporter gene. Briefly, cells were incubated with test compounds in culture medium containing charcoal-filtered fetal bovine serum for 20 h 37 °C 5% CO2. Finally, luciferase activity was detected luminometrically after addition of specific substrate to the cells.
as §1

| SMILES | Inhibition of LPS-induced TNF-alpha release Emax [1] [%] | EC50 [1] [nM] | GILZ Emax (GILZ mRNA) | GILZ Relative ED50 (GILZ mRNA) | Reversal by GR antagonist RU486 of inhibition of LPS-induced cytokine release (GR [2]) | Transactivation Emax (GR [3]; MMTV promoter, HeLa cells) [%] | EC50 (GR [3]; MMTV promoter, HeLa cells) [nM] | Transactivation EC50 relative to concentration needed for transrepression (GR [3]; higher concentration than needed for transrepression) | Emax ([1]; PBMC) [%] | EC50 ([1]; PBMC) [nM] | Emax (GR [3]; MMTV promoter, HeLa cells) [%] |
| --- | --- | --- | --- | --- | --- | --- | --- | --- | --- | --- | --- |
| C[C@H](NC(=O)[C@H]1CCCO1)[C@H](Oc1ccc(C(=O)O[C@H]2CCCN(C(=O)[C@H]3COC(=O)C3)C2)cc1)c1ccc(C2CC2)cc1 [LEO 134310] | 102 | 0.58 | 6.7 ± 2.7^NS fold to control | 270 ± 110 µg/mL | could be reversed in a concentration-dependent manner | 95 | 410 | more than 300 fold |  |  |  |
| CCC(=O)O[C@]1(C(=O)CCl)[C@@H](C)C[C@H]2[C@@H]3CCC4=CC(=O)C=C[C@]4(C)[C@@]3(F)[C@@H](O)C[C@@]21C [CP, Clobetasol Propionate] |  |  | 7.7 ± 2.5^NS fold to control | 1.1 ± 0.25^NS µg/mL | could be reversed in a concentration-dependent manner |  | 0.25 |  | 95 | 0.15 | 110 |
| CCCCC(=O)O[C@]1(C(=O)CO)[C@@H](C)C[C@H]2[C@@H]3CCC4=CC(=O)C=C[C@]4(C)[C@@]3(F)[C@@H](O)C[C@@]21C [BMV, Betamethasone Valerate] |  |  | 6.1 ± 3.7 fold to control | 5.1 ± 27 µg/mL | could be reversed in a concentration-dependent manner |  | 2.6 |  | 95 | 0.22 | 120 |
